These results are taken from patent US20230002361A1, “2H-INDAZOLE DERIVATIVES AND THEIR USE IN THE TREATMENT OF DISEASE” (BIOGEN MA INC., priority 2019, published 2023).

Each structure is given as a SMILES string. Structures can show the parent of a compound that is named as a salt. Where two headings read alike, the source gives them in different places.

The target in one data set is T1, IRAK4 (Homo sapiens, UniProt Q9NWZ3).
T1 construct: with 0.1 nM IRAK4, 1.6 μM of biotinylated peptide substrate and 10 μM ATP
T1 sequence (Q9NWZ3 1-460): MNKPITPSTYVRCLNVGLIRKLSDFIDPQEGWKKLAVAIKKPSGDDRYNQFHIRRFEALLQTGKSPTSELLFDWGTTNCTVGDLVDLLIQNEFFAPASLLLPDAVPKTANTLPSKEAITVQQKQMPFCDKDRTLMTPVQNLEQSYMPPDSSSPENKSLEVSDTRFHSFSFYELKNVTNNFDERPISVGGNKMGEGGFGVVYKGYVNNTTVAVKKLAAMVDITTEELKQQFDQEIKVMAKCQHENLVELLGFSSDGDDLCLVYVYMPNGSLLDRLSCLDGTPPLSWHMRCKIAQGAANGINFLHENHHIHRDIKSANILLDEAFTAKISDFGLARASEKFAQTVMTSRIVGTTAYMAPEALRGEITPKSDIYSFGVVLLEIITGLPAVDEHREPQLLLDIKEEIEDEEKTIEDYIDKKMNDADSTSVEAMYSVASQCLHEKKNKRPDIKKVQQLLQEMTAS
The data set can be described thus: IRAK4 MSD Biochemical Assay (1 mM ATP, 2 h). The following applies: room temperature. On the procedure:
The 2-hour 10 μM ATP Biochemical Assay employs a MesoScale Detection (MSD) format.
The activity is quenched with 11 μl of 70 mM EDTA, pH 8.
To detect the phosphorylated biotinylated peptide substrate, 30 μl of the quenched reaction mixture is added to equivalent wells of a 384 well streptavidin coated MesoScale plate (Meso Scale Discovery #L21SA-1). After a 1 hour incubation of the plate for 1 hour at room temperature with gentle mixing, the plate wells are washed 3 times with 50 mM Tris, pH 7.5, 150 mM NaCl, 0.02% Tween-20.
A 25 μl volume of 1:500 anti-P-Threonine Rabbit polyclonal Antibody plus 1:500 Goat-anti-Rabbit Sulfo Tag Antibody (Meso Scale Discovery R32AB-1) in 50 mM Tris, pH 7.5, 150 mM NaCl, 0.02% Tween-20 plus 2% BSA is then added to each well. After a 1-hour incubation of the plate for 1 hour at room temperature with gentle mixing, the plate wells are washed, 3 times with 50 mM Tris, pH 7.5, 150 mM NaCl, 0.02% Tween-20. A 40 μl volume of 2×MSD Read Buffer (Meso Scale Discovery R92TC-1) is added to each well, and the plate is read immediately in an MSD Plate Reader (Meso Scale Discovery).
The 2-hour 1 mM ATP IRAK4 Biochemical assay was performed as described above, but with […] IRAK4 and 1 mM ATP.

Another data set concerns the target T2, MDR1 (P-gp) (Homo sapiens, UniProt P08183).
T2 construct: host or cells: MDCK cells
The data set can be described thus: MDR1-MDCK assay (efflux ratio). The data set is classed as in vitro ADME. The following applies: human, MDCK-MDR1, 1 μM compound, 120 minutes incubation; read-out: MDR1-MDCK Efflux Ratio; (B-A/A-B). On the procedure: • The assay makes use of human MDR1 transfected MDCK cells (NIH cell line in-licensed from Absorption Systems) • The compounds are tested at 1 μM concentration prepared in transport buffer (Hank's balanced salt solution with HEPES) • MDR1-MDCK cell are cultured for 7 days in 96 well transwell insert plates (Corning). Insert plates are washed before the assay and TEER (Trans epithelial electric resistance) is measured. • These plates are loaded with test compound solution 85 μL for A-B transport and 260 μL for B-A transport in the respective donor compartment.
Mass balance=100×((Vr×Cr^final)+(Vd×Cd^final))/(Vd×CE) • Where: • dCr/dt is the cumulative concentration in the receiver compartment versus time in μM s^−1 • Vr is the volume of the receiver compartment in cm^3 • Vd is the volume of the donor compartment in cm^3 • A is the area of the insert (0.143 cm^2 for 96-well insert) • CE is the estimated experimental concentration (Time=0) of the dosing solution • Cr^final is the concentration of the receiver at the end of the incubation period • Cd^final is the concentration of the donor at the end of the incubation period.

The mark [1] stands for this setting: read-out: IRAK4 MSD Biochemical Assay (1 mM ATP, 2 h) IC50.

T2 sequence (P08183 whole entry): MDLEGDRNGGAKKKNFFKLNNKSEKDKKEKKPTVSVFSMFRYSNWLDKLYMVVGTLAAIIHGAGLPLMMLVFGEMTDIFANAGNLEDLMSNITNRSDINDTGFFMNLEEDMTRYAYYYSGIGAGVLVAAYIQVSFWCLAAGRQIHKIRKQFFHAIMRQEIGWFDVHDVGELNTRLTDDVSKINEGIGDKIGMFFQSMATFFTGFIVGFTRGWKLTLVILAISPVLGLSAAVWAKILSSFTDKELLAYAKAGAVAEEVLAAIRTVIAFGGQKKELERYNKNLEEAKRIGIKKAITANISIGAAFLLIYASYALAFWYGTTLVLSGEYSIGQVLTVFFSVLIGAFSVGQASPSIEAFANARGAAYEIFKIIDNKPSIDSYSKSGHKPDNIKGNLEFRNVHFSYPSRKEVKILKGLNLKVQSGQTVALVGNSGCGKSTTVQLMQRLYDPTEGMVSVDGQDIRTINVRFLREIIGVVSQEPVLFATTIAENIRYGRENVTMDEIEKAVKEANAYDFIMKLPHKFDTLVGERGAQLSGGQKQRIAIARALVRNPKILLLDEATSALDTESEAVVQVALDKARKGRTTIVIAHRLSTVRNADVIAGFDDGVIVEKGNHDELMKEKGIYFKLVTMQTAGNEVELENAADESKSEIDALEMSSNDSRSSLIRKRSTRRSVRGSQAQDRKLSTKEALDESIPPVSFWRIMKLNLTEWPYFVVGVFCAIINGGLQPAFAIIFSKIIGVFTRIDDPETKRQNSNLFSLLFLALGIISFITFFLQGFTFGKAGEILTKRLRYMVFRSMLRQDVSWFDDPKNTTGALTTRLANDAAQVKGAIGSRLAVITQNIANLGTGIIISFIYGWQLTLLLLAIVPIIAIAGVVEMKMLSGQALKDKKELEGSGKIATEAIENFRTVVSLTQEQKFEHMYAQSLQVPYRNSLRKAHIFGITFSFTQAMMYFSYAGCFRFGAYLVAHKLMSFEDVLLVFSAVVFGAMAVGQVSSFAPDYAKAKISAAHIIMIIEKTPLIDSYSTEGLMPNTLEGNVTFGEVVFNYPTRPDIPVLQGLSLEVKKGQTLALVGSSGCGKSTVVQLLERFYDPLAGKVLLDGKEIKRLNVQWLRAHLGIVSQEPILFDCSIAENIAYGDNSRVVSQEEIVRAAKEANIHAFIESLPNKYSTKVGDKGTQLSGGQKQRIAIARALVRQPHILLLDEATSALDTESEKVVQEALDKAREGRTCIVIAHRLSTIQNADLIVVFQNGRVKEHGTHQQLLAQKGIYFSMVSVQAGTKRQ

Turning to `COc1cccc(NC(=O)c2cc(C)c3nn(CC4CCOC4)cc3c2)n1.O=C(O)C(F)(F)F` (stereo not shown) [Example 9, N-(6-methoxypyridin-2-yl)-7-methyl-2-((tetrahydrofuran-3-yl)methyl)-2H-indazole-5-carboxamide Trifluoroacetate], on IRAK4 (setting [1]), the IC50 (commonly the concentration at which inhibition is half-maximal) was 2740 nM. Moreover, the efflux ratio at 120 min, 1 μM at MDR1 (P-gp) was determined as 0.5.

`CC(C)Oc1nc2nn(C[C@@H]3CCOC3)cc2cc1C(=O)Nc1cccc(C(F)F)n1` (single isomer, unassigned) [Example 107]: the half-maximal inhibitory concentration (IC50) at IRAK4 (setting [1]) turned out to be 0.3 nM. Besides, on MDR1 (P-gp), the efflux ratio at 120 min, 1 μM worked out at 1.

Turning to `CC(C)Oc1cc2nn(C34COC(C)(C3)C4)cc2cc1C(=O)Nc1cccc(C(F)F)n1` [Example 88, N-(6-(difluoromethyl)pyridin-2-yl)-6-isopropoxy-2-(1-methyl-2-oxabicyclo[2.1.1]hexan-4-yl)-2H-indazole-5-carboxamide trifluoroacetate], the IC50 on IRAK4 (setting [1]) was found to be 0.1 nM. Moreover, the efflux ratio at 120 min, 1 μM on MDR1 (P-gp) worked out at 0.5.

`COc1cccc(NC(=O)c2cc(OC)c3nn(C4CCOCC4)cc3c2)n1.Cl` [Example 16, 7-Methoxy-N-(6-methoxypyridin-2-yl)-2-(tetrahydro-2H-pyran-4-yl)-2H-indazole-5-carboxamide hydrochloride]: the IC50 on IRAK4 (setting [1]) was determined as 211 nM. Besides, at MDR1 (P-gp), the efflux ratio at 120 min, 1 μM amounted to 3.

As for `COCCn1cc2cc(C(=O)Nc3cccc(C(F)F)n3)c(OC(C)C)cc2n1.Cl` [Example 28, N-(6-(difluoromethyl)pyridin-2-yl)-6-isopropoxy-2-(2-methoxyethyl)-2H-indazole-5-carboxamide hydrochloride], the 50% inhibitory concentration (IC50) at IRAK4 (setting [1]) was found to be 4.4 nM. Further, at MDR1 (P-gp), the efflux ratio at 120 min, 1 μM was determined as 0.4.

Regarding `CC(C)Oc1cc2nn(C34CCC(C)(CC3)OC4)cc2cc1C(=O)Nc1ccn(C)n1` [Example 103, 6-Isopropoxy-N-(1-methyl-1H-pyrazol-3-yl)-2-(1-methyl-2-oxabicyclo[2.2.2]octan-4-yl)-2H-indazole-5-carboxamide], the IC50 at IRAK4 (setting [1]) is 1.9 nM. On MDR1 (P-gp), the efflux ratio at 120 min, 1 μM came to 0.9.

`COc1cccc(NC(=O)c2cc(OC)c3nn(CCC(C)(C)O)cc3c2)n1.Cl` [Example 14, 2-(3-Hydroxy-3-methylbutyl)-7-methoxy-N-(6-methoxypyridin-2-yl)-2H-indazole-5-carboxamide hydrochloride]: on IRAK4 (setting [1]), the IC50 was determined as 247 nM. In addition, at MDR1 (P-gp), the efflux ratio at 120 min, 1 μM came to 24.4.

With `CC(C)Oc1cc2nn([C@]34CC[C@](C)(C3)OC4)cc2cc1C(=O)Nc1cccc(C(F)F)n1` (single isomer, unassigned) [Example 125], on IRAK4 (setting [1]), the IC50 was found to be 0.4 nM. The efflux ratio at 120 min, 1 μM at MDR1 (P-gp) was 0.5.

Regarding `CO[C@H]1C[C@H](Oc2cc3nn(C4CCOCC4)cc3cc2C(=O)Nc2cccc(C(F)F)n2)C1.Cl` [Example 50, N-(6-(difluoromethyl)pyridin-2-yl)-6-((1R,3R)-3-methoxycyclobutoxy)-2-(tetrahydro-2H-pyran-4-yl)-2H-indazole-5-carboxamide Hydrochloride], at IRAK4 (setting [1]), the half-maximal inhibitory concentration (IC50) stood at 0.2 nM. Besides, the efflux ratio at 120 min, 1 μM at MDR1 (P-gp) was 1.4.

In the case of `CC(C)Oc1cc2nn(C34COC(C)(C3)C4)cc2cc1C(=O)Nc1ccn(C)n1` [Example 92, 6-Isopropoxy-N-(1-methyl-1H-pyrazol-3-yl)-2-(1-methyl-2-oxabicyclo[2.1.1]hexan-4-yl)-2H-indazole-5-carboxamide], the IC50 at IRAK4 (setting [1]) is 4.8 nM. Moreover, the efflux ratio at 120 min, 1 μM on MDR1 (P-gp) worked out at 1.6.

For `CC(C)Oc1cc2nn([C@@]34CC[C@@](C)(C3)OC4)cc2cc1C(=O)Nc1cccc(C(F)F)n1` (single isomer, unassigned) [Example 126], the IC50 on IRAK4 (setting [1]) was 0.2 nM. Further, the efflux ratio at 120 min, 1 μM on MDR1 (P-gp) is 0.5.

Consider `CC(C)Oc1cc2nn(C3CCOCC3)cc2cc1C(=O)Nc1cnn2cccnc12` [Example 72, 6-Isopropoxy-N-(pyrazolo[1,5-a]pyrimidin-3-yl)-2-(tetrahydro-2H-pyran-4-yl)-2H-indazole-5-carboxamide], for which the IC50 on IRAK4 (setting [1]) came to 0.8 nM. Further, at MDR1 (P-gp), the efflux ratio at 120 min, 1 μM was 2.1.

Take `COc1cc2nn(C[C@@H]3CCOC3)cc2cc1C(=O)Nc1cccc(C(F)F)n1` (single isomer, unassigned) [Example 19]: the IC50 at IRAK4 (setting [1]) was determined as 5.4 nM. Moreover, the efflux ratio at 120 min, 1 μM at MDR1 (P-gp) was 1.

Regarding `Cc1cnc2c(NC(=O)c3cc4cn(C56CCC(C)(C5)OC6)nc4cc3OC(C)C)cnn2c1` (stereo not shown) [Example 99, 6-Isopropoxy-2-(1-methyl-2-oxabicyclo[2.2.1]heptan-4-yl)-N-(6-methylpyrazolo[1,5-a]pyrimidin-3-yl)-2H-indazole-5-carboxamide trifluoroacetate], the IC50 at IRAK4 (setting [1]) stood at 0.3 nM. Further, the efflux ratio at 120 min, 1 μM at MDR1 (P-gp) was found to be 1.2.

For `CC(C)Oc1cc2nn(C[C@H]3CCOC3)cc2cc1C(=O)Nc1cccc(C(F)F)n1` (single isomer, unassigned) [Example 20], on IRAK4 (setting [1]), the 50% inhibitory concentration (IC50) was determined as 0.5 nM. Further, the efflux ratio at 120 min, 1 μM at MDR1 (P-gp) turned out to be 0.7.

For `CC(C)Oc1nc2nn(CC3CCOC3)cc2cc1C(=O)Nc1cnn2cccnc12` (stereo not shown) [Example 54, 6-Isopropoxy-N-(pyrazolo[1,5-a]pyrimidin-3-yl)-2-((tetrahydrofuran-3-yl)methyl)-2H-pyrazolo[3,4-b]pyridine-5-carboxamide], half-maximal inhibition on IRAK4 (IRAK4 MSD Biochemical Assay (1 mM ATP, 2 h) IC50 (nM)) (IC50) was put at 1.3 nM. The efflux ratio at 120 min, 1 μM at MDR1 (P-gp) is 3.6.

Turning to `Cc1cnc2c(NC(=O)c3cc4cn(C5CCCOC5)nc4nc3OC3CCC3)cnn2c1` (single isomer, unassigned) [Example 131], on IRAK4 (setting [1]), the half-maximal inhibitory concentration (IC50) is 0.2 nM. The efflux ratio at 120 min, 1 μM at MDR1 (P-gp) worked out at 2.6.

On to `CC(C)Oc1cc2nn([C@@H]3CCCOC3)cc2cc1C(=O)Nc1cccc(C(F)F)n1` (single isomer, unassigned) [Example 43], for which, at IRAK4 (setting [1]), the 50% inhibitory concentration (IC50) stood at 0.2 nM. The efflux ratio at 120 min, 1 μM on MDR1 (P-gp) is 0.6.

Regarding `CC(C)Oc1cc2nn(C34COC(C)(C3)C4)cc2cc1C(=O)Nc1cnn2cc(Cl)cnc12` [Example 95, N-(6-chloropyrazolo[1,5-a]pyrimidin-3-yl)-6-isopropoxy-2-(1-methyl-2-oxabicyclo[2.1.1]hexan-4-yl)-2H-indazole-5-carboxamide], the concentration for half-maximal inhibition (IC50) on IRAK4 (setting [1]) was 0.3 nM. For the same compound, on MDR1 (P-gp), the efflux ratio at 120 min, 1 μM is 0.9.

`CC(C)Oc1cc2nn(CCC(C)(C)O)cc2cc1C(=O)Nc1ccn(C(F)F)n1` [Example 33, N-(1-(difluoromethyl)-1H-pyrazol-3-yl)-2-(3-hydroxy-3-methylbutyl)-6-isopropoxy-2H-indazole-5-carboxamide]: on IRAK4 (setting [1]), the half-inhibitory concentration (IC50) came out at 4.3 nM. The efflux ratio at 120 min, 1 μM on MDR1 (P-gp) turned out to be 8.6.

With `Cn1cccc(NC(=O)c2cc3cn(C[C@@H]4CCOC4)nc3nc2OC2CCC2)c1=O` (single isomer, unassigned) [Example 113], on IRAK4 (setting [1]), the concentration for half-maximal inhibition (IC50) is 2.1 nM. For the same compound, the efflux ratio at 120 min, 1 μM at MDR1 (P-gp) came to 5.3.

On to `CO[C@H]1C[C@H](n2cc3cc(C(=O)Nc4cccc(C(F)F)n4)c(OC(C)C)cc3n2)C1` [Example 74, N-(6-(difluoromethyl)pyridin-2-yl)-6-isopropoxy-2-((1R,3R)-3-methoxycyclobutyl)-2H-indazole-5-carboxamide], for which the concentration for half-maximal inhibition (IC50) at IRAK4 (setting [1]) is 0.4 nM. Besides, on MDR1 (P-gp), the efflux ratio at 120 min, 1 μM came to 0.5.

Consider `CC(C)Oc1nc2nn(C[C@@H]3CCOC3)cc2cc1C(=O)Nc1ccn(C(F)F)n1` (single isomer, unassigned) [Example 111], for which the IC50 at IRAK4 (setting [1]) worked out at 2.7 nM. Also, at MDR1 (P-gp), the efflux ratio at 120 min, 1 μM amounted to 2.1.
